No end group written: not given here.
What was measured:
C. tropicalis = C. tropicalis skin infection mouse model; format: in vivo, BALB/C female mice
Method: All animal experiments and procedures were performed with the approval of the Institutional Animal Care and Use Committee (IACUC) of Sunchon National University, Korea (SCNU IACUC-2019-10). BALB/C female mice (six weeks old) were obtained from Koatech Co. (Pyongtaek, Gyeonggido, Korea) and divided into three groups (n = 4): control, pseudin-2, and P2-LZ4 groups. The skin on the back of each mouse was shaved 1 h before infection, and the mice were anesthetized by inhalation of 5% (induction) and 2% (maintenance) isoflurane in pure oxygen. Mice were then subjected to subcutaneous infection with 100 µL C. tropicalis (10^7 cells/mL) by injection into the dorsum of each mouse. At 24 h after infection, 100 µL PBS, pseudin-2 (0.1 mg/mL), or P2-LZ4 (0.1 mg/mL) was injected into the same site. At four days after peptide injection, mice were euthanized by CO2 inhalation, and the infected skin tissues were excised, fixed in 4% paraformaldehyde, embedded in paraffin, stained with H&E, and observed by light microscopy.

[1] = Calcein leakage from fungus-mimic artificial vesicles; details: fungus-mimic PC/PE/PI/ergosterol vesicles, 20 μM lipid; peptide/lipid molar ratio 0.05; 100% = 0.03% Triton X-100; three independent experiments
Method: (§1) The permeability of peptides in calcein-entrapped artificial liposomes was assayed by measuring calcein leakage. The desired mixtures of lipids (PC/PE/PI/ergosterol, 5:4:1:2 and PC/CH/SM, 2:1:1, weight ratio) were dissolved in chloroform at 10 mg/mL, dried in a glass tube under nitrogen, and then lyophilized overnight to remove residual solvent. The dried lipid films were resuspended in 1 mL of dye solution (80 mM calcein, 10 mM HEPES buffer, pH 7.2) at 50 °C and vortexed, followed by freeze-thawing for nine cycles and extrusion with polycarbonate filters (0.2-μm pore-size) using an Avanti Mini-Extruder (Avanti Polar Lipids Inc., Alabaster, AL, USA). Free calcein was removed using PD-10 desalting columns (GE Healthcare Life Science, Seoul, Korea). Calcein-entrapped vesicles of 20 μM lipids were incubated with peptides at concentrations of […], 0.02, 0.05, and 0.1 molar ratio (peptide/lipid) and the fluorescence was assessed at 480 (Ex) and 520 (Em) nm using a microtiter SpectraMax M5 reader (Molecular Devices). Complete (100%) release was achieved by the addition of 0.03% Triton X-100 (v/v).

[2] = Calcein leakage from mammalian-mimic artificial vesicles; details: mammalian-mimic PC/CH/SM vesicles, 20 μM lipid; peptide/lipid molar ratio 0.1; 100% = 0.03% Triton X-100
Method: as §1

What does the source list for “GLNALKKVFQGIHEAIKLINNHVQ-NH2 [Pseudin-2]”?
histological evaluation of skin tissues (H&E) (C. tropicalis; 100 µL of 0.1 mg/mL peptide s.c. 24 h after infection, tissues taken four days after peptide injection): able to recover from histological lesions; skin lesions (swelling and redness in the dorsal skin) (C. tropicalis; 100 µL of 0.1 mg/mL peptide s.c. 24 h after s.c. infection, monitored seven days, n = 4): reduced swelling and redness; leakage of calcein [1]: 80.1%; calcein efflux [2]: significant dye leakage

Reference: publication PMC7766124, “Improved Cell Selectivity of Pseudin-2 via Substitution in the Leucine-Zipper Motif: In Vitro and In Vivo Antifungal Activity” (Antibiotics, 2020)
